Results: a melting point compilation (Tetko et al.; mined from patent text by program, amines drawn as free bases though some values may be those of a salt)

Compound | melting point [°C]
S=c1cc(-c2nc[nH]n2)oc2ccccc12 | 232
COc1cc(Cl)c2ncccc2c1 | 74 to 75
N#Cc1c(C(F)(F)F)nn(-c2c(Cl)cc(S(=O)(=O)C(F)(F)F)cc2Cl)c1[N+](=O)[O-] | 168 to 169
COC(=O)c1nc(-c2ccccc2)ccc1Oc1nc(OC)cc(OC)n1 | 92 to 94
CC(=O)Nc1nc2c(ncn2CCC(CO)CO)c(=O)[nH]1 | 143 to 146
CCCCc1noc(-c2cccc(NC(=O)N(C)C)c2)n1 | 108 to 110
CCN1C(=O)Cc2ccc(C(O)CCl)c(O)c21 (centres undefined) | 141 to 147
CC1(C)OC[C@@H](N)[C@H](O)CO1 (relative stereo) | 81.5 to 82.5
CCOC(=O)c1c(S(=O)Cc2nccn2C)nc2cc(OC)c(OC)cc2c1-c1ccc(OC)c(OC)c1 (centres undefined) | 151 to 152
NS(=O)(=O)c1cnc(-c2cccs2)s1 | 134 to 136
CCCC1Cc2c(c(C)c(C)c3oc(C(=O)O)cc23)C1=O (centres undefined) | 287
CC(C)C[C@H](NC(=O)OCC1CC=CCC1)C(=O)N[C@@H](Cc1ccccc1)C(=O)CSCc1ccco1 (some centres undefined) | 85 to 87
CC(C)c1noc([C@]2(C)CC[C@H](NCC(=O)N3C[C@@H](F)C[C@H]3C#N)C2(C)C)n1 | 82 to 85
CC(C)(C)Nc1c(NCc2ccc(F)cc2C(F)(F)F)c(=O)c1=O | 192 to 194
Cc1sc2c(Br)c3ccccc3c(-c3cc(Br)c(O)c(C4CCCC4)c3)c2c1C | 190 to 191
COc1cc(C(=O)c2nc3ccccc3[nH]2)cc([N+](=O)[O-])c1OC | 212 to 213
CC(C)N1C(=O)N(c2ccc([N+](=O)[O-])c(C(F)(F)F)c2)C(=O)C1(C)C | 130
CCOC(=O)c1nc2scc(CNC(=O)c3ccc(C(=O)OC)cc3)c2c(=O)[nH]1 | 236
Cc1ccccc1-c1c(Cl)nc2ccccc2c1Cl | 78 to 80
C=C(c1ccc(C(=O)OC)cc1)c1cc2c(cc1C)C(C)(C)CCC2(C)C | 167 to 168
Cc1cccc(NC(=O)NC(Cc2ccccc2)C(=O)O)c1 (racemic) | 182
CCC(C)(C)c1cccc(C(=O)NN)c1O | 156 to 157
Cc1c(C(=O)O)nc2ccc3c(c2c1-c1ccc2c(c1)OCO2)OCO3 | 219 to 222

Compound | melting point [°C]
CC(=O)Nc1ccc2c(c1)[C@@H](O)[C@H](Br)C(C)(C)O2 (relative stereo) | 170
CCCCC1(O)C2=NCC3(CCCCC3)CN2c2ccccc21 (centres undefined) | 192 to 195
CN(C)Cc1cc(C(=O)c2cccn2C)cc(C(C)(C)C)c1O | 174
CCOC(=O)C(=O)Nc1cccc(S(C)=O)c1C(N)=O (centres undefined) | 164 to 166
CCNC(=O)C(=O)[C@H](Cc1ccccc1)NC(=O)[C@H](CC(C)C)NC(=O)OCCOC | 138
COc1ccc(C)cc1OCCO | 42 to 43
COc1cc2c(cc1OC)-c1cc(=Nc3c(C)cc(C)cc3C)n(C)c(=O)n1CC2 | 151 to 152
COc1cccc2c(=O)cc(C3CC3C(=O)O)oc12 (centres undefined) | 193 to 196
O=C(c1ccccc1)c1cccc2c1NCC2 | 124 to 125
Cc1nc(-c2ccc(OCC(C)C)c(C=O)c2)sc1C(=O)O | 213 to 217
COC(=O)[C@H]1CC[C@@H](C(=O)O)CN1S(C)(=O)=O (racemic) | 130 to 133
CCOC(=O)c1nc(N)sc1-c1nc2ccccn2c1C | 180 to 182
O=[N+]([O-])c1ccc(SCCc2c[nH]cn2)cc1 | 167 to 168
CC(C)(C(=O)c1ccc(SCCO)cc1)N1CCOCC1 | 62 to 64
O=C(CC(=O)OCc1ccc([N+](=O)[O-])cc1)CC1CC(=O)N1 (centres undefined) | 50 to 52
Oc1cccc2ccc(C=Cc3ccccc3)nc12 | 70 to 72
CCCc1c(OCC2CO2)ccc(C(C)=O)c1O (centres undefined) | 53 to 55
CCCOC(=O)c1cncn1C(C)c1ccccc1 (centres undefined) | 156 to 157
CC(C)(C)C(NC(=O)c1ccc(Cl)cc1)NC(=NC#N)NCc1ccccn1 (centres undefined) | 184 to 185
COc1cccc(-c2cccc3c2S(=O)(=O)NC(C2CCCCC2)N3)c1 (centres undefined) | 108 to 115
CNC(=NC#N)NCCCCCc1csc(NC(=N)N)n1 | 109 to 113
O=c1[nH]c(=O)n(C2CC(F)C(CO)O2)cc1C(I)=CI (centres undefined) | 112
CCOC(=O)C1C2C1S(=O)(=O)CC2(N)C(=O)OCC (centres undefined) | 80 to 83

Further lines, results first:

melting point [°C] | Compound
241 to 243 | CCn1cc(C(=O)O)c(=O)c2cc(F)c(N3CCSCC3)nc21
138 to 141 | COc1cccc2c(CCCCNC3COc4c(F)ccc(C(N)=O)c4C3)coc12 (centres undefined)
205 to 210 | CN1CCC(=C2c3ccccc3COc3ccc(C(=O)O)cc32)CC1
107 to 109 | COc1cc(COc2ccc(S(=O)(=O)c3ccc(C)nc3Nc3c(C)cc(C)cc3C)cc2)cc(OC)c1
205 to 207 | NC(C(=O)CCC(=O)O)c1ccc(Nc2n[nH]c3ncnc(Nc4cccc(Cl)c4)c23)cc1 (centres undefined)
64 to 67 | CC(C)(C)OC(=O)C1=Cc2cc(OCc3ccccc3)ccc2OC1
130 to 131 | O=C(NCCN1CCN(C(c2ccccc2)c2cccnc2)CC1)C1CSC(c2cccnc2)N1 (centres undefined)
120 | C#CCN1CCCc2ccc(OC(=O)Nc3c(C)cccc3C(C)C)cc21
177 to 178 | O=C(NC[C@H]1CN(c2ccc(N3CCS(=O)(=O)CC3)c(F)c2)C(=O)O1)C(F)F
68 to 71 | O=C(/C=C/c1ccccc1Sc1ccc(Cl)cc1Cl)NCCCCO
280 to 285 | CCOC(=O)c1c[nH]c2nc(-c3ccncc3)c(F)cc2c1=O
130 to 131 | COc1cc(OC)cc(C(=O)N2CCc3cc(OCc4ccccc4)c(OC)cc3C2)c1
115 to 116 | CCCCCC(C#Cc1ccc(C(=O)O)cc1)c1ccc2c(c1)C(C)(C)CCC2(C)C (racemic)
181 to 183 | Brc1cn(C(c2ccccc2)(c2ccccc2)c2ccccc2)nc1-c1ccccc1
108 | COc1cc(OCCCN(C)Cc2ccc(OC)c(OC)c2)ccc1NC(=O)c1cccc2c(=O)c3cccc(F)c3[nH]c12
176 to 179 | CN(Cc1cc2c(=O)c(C(=O)NCc3ccc(Cl)cc3)cn(C)c2o1)CC(O)c1cc2ccccc2o1 (centres undefined)
80 to 81 | O=S(=O)(CCCCl)Nc1ccc(N2CCN(c3ccc(OCC(O)(Cn4cncn4)c4ccc(Cl)cc4Cl)cc3)CC2)cc1 (centres undefined)
215 to 220 | CCOC(=O)N1CCN(c2cc3nc(C(C)(C)C)sc3cc2N)CC1
120 to 124 | Cc1ccc2cccc(OCc3cc(N(C)C(=O)CN4C(=O)c5ccccc5C4=O)ccc3Cl)c2n1
198 to 200 | CC[C@@]12C[C@H](O)[C@](O)(c3c(F)cccc3F)C[C@H]1CCc1cc(O)ccc12
107 to 114 | O=C(CCCCN1CCOCC1)NNC(=O)N1Cc2ccccc2Oc2ccc(Cl)cc21
103 to 105 | O=c1c(Cc2ccccc2)c2n(c(=O)n1CCCCCl)CCCS2(=O)=O
114 to 121 | Cc1c(-c2ccc(O)cc2)n(Cc2ccc(OCCN3C(C)CCCC3C)cc2)c2ccc(O)cc12 (centres undefined)
136 to 138 | CCCCCCCCCCCCCCOc1ccccc1NC(=O)c1cc(Sc2nnnn2-c2cccc(C(=O)O)c2)c2ccccc2c1O

melting point [°C] | Compound
179 to 180 | COC1OCC[C@@H]1NC(=O)[C@H](CC1CCCCC1)NC(=O)CNC(=O)COc1ccc2c(c1)Nc1ccccc1S2 (some centres undefined)
149 | COc1cccc(C=C2c3ccccc3CCc3ccccc32)c1F
210 to 212 | CCCSc1ncc(CC(NC(=O)c2ccccc2)C(=O)O)n1Cc1ccccc1Cl (centres undefined)
106 to 107 | O=C(O)COc1cccc(CCc2nc(-c3cccs3)c(-c3cccs3)o2)c1
166 to 170 | Cc1[nH]c([N+](=O)[O-])c(C)c1-c1ccnc(Nc2ccc(F)cc2)n1
231 to 233 | Nc1ncccc1-c1nc2ccc(-c3ccncc3)nc2n1-c1ccc(CNC(=O)c2ccccc2)cc1
126 to 128 | CON=C(C)c1cc2c(Oc3ccc(Cl)cc3)cncc2s1
87.5 to 92.5 | COc1cccc(NC(=O)Nc2nc3nc(NCCCN4CCN(C)CC4)ncc3cc2-c2c(Cl)cccc2Cl)c1
161 to 163 | CCn1ncnc1COc1nc2c(cc1C(C)(C)C)nnn2-c1ccccc1
200 to 203 | O=c1cc(CBr)n(Cc2ccccc2)cc1OCCC12CC3CC(CC(C3)C1)C2
93 to 94 | COC(=O)c1c(Cl)cc(Cl)cc1NC(=O)CSc1ccccc1OC
192 to 195 | NC(=O)C(CCc1cc(Cl)ccc1N1CCCCC1)c1ccc(C(=O)O)cc1 (centres undefined)
185 to 188 | O=C(NC(=O)c1c(F)cccc1F)Nc1ccc(OC(c2ccc(Cl)cc2)C2CC2)cc1 (centres undefined)
74 to 76 | CC(=O)OCCCn1c(NC(=O)c2cccs2)nc2cc(C(=O)N(C)C3CCCCC3)ccc21
69 to 71 | C[C@@H]1C(=O)N(CC(=O)CCc2ccccc2)[C@H]1SCc1ccccc1 (relative stereo)
147 to 149 | COc1ccc(-c2c(NS(=O)(=O)c3ccc(C)cc3)ncnc2OCCO)cc1
185 to 186 | CC(C)C(NC(=O)N1CCc2cc(S(=O)(=O)N3CCN(c4cccc(Cl)c4)CC3)ccc21)C(=O)O (centres undefined)
152 to 154 | CN1CC(C(=O)N(C)C(Cc2ccc(Cl)cc2)Cc2ccc(Cl)cc2)=C(O)C1=O
55 to 57 | Cc1ccc(S(=O)(=O)OCC2Cc3cc(Cl)cc(OS(=O)(=O)C(F)(F)F)c3O2)cc1 (centres undefined)
106 to 107 | CNc1ccnc(C2=Cc3ccccc3CC2)c1
56 to 58 | CCC(=O)COc1nn(CC(=O)CC)c(-c2ccc(F)cc2)c1-c1ccc(S(C)(=O)=O)cc1
198 to 201 | CC(C)Oc1ccc(F)c(-c2nn(C(C)c3oc4ccccc4c(=O)c3-c3cccc(F)c3)c3ncnc(N)c23)c1 (centres undefined)
128 to 130 | COC(=O)c1ccc(OCCCN2CCN(c3ccc(Cl)nn3)CC2)cc1
123 to 124 | CCN1CCN(C(=O)c2ccc(N)cc2Cl)CC1
